# Assay results: ChEMBL document CHEMBL1201862, “PubChem BioAssay data set” (2004)
#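 Exposure lasted 48 hours, with cells grown in 96-well plates and compounds tested at five concentrations. GI50 = concentration required for 50% inhibition of growth.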 Activity calls are given as the source filed them. No stated cut-off is given here; in the data, active = GI50 up to about 1.1 µM and inactive = higher. Where a SMILES comes first, the peptide text is derived from it. The star is where a group is joined. Boc = CC(C)(C)OC(=O)*
# Legend:
# Test in all cases: NCI-60 cell line screen, 48 h
# MCF7 = test system: MCF7
# SK-MEL-5 = test system: SK-MEL-5
# COLO 205 = test system: COLO 205
# T47D = test system: T47D
# OVCAR-8 = test system: OVCAR-8
# PC-3 = test system: PC-3
# UO-31 = test system: UO-31
# SK-MEL-2 = test system: SK-MEL-2
# SW-620 = test system: SW-620
# NCI/ADR-RES = test system: NCI/ADR-RES
# A549 = test system: A549
# UACC-62 = test system: UACC-62
# MDA-MB-435 = test system: MDA-MB-435
# SK-OV-3 = test system: SK-OV-3
# U-251 = test system: U-251
# DU-145 = test system: DU-145
# NCI-H522 = test system: NCI-H522
# HCT-15 = test system: HCT-15
# RPMI-8226 = test system: RPMI-8226
# HL-60 = test system: HL-60
SMILES,GI50 (MCF7),GI50 (SK-MEL-5),GI50 (COLO 205),GI50 (T47D),GI50 (OVCAR-8),GI50 (PC-3),GI50 (UO-31),GI50 (SK-MEL-2),GI50 (SW-620),GI50 (NCI/ADR-RES),GI50 (A549),GI50 (UACC-62),GI50 (MDA-MB-435),GI50 (SK-OV-3),GI50 (U-251),GI50 (DU-145),GI50 (NCI-H522),GI50 (HCT-15),GI50 (RPMI-8226),GI50 (HL-60)
CCOC(=O)c1[nH]cc(C)c1-c1ccn(-c2ccccc2)c1,61 µM (inactive),21.7 µM (inactive),51.9 µM (inactive),35 µM (inactive),38.3 µM (inactive),30.6 µM (inactive),25.8 µM (inactive),61.5 µM (inactive),80.4 µM (inactive),36.2 µM (inactive),59.6 µM (inactive),36.8 µM (inactive),41.9 µM (inactive),> 100 µM (inactive),49.4 µM (inactive),> 100 µM (inactive),20.1 µM (inactive),54.5 µM,–,–
CCOC(=O)[C@@]12C[C@](/C=C/OC)(O[Si](C)(C)C)[C@@]13c1cc(OC)c(OC)cc1CCN3C(=O)C2O (stereo partly specified),> 100 µM (inactive),38.5 µM (inactive),> 100 µM (inactive),> 100 µM (inactive),> 100 µM (inactive),> 100 µM (inactive),> 100 µM (inactive),> 100 µM (inactive),> 100 µM (inactive),> 100 µM (inactive),> 100 µM (inactive),46.9 µM (inactive),> 100 µM (inactive),> 100 µM (inactive),> 100 µM (inactive),> 100 µM (inactive),–,> 100 µM,> 100 µM (inactive),–
COC(=O)N1CC[C@@H]2CCC=C(c3cccc4c3OCO4)[C@@H]21,> 100 µM (inactive),61.4 µM (inactive),> 100 µM (inactive),32.1 µM (inactive),> 100 µM (inactive),54.2 µM (inactive),40.7 µM (inactive),> 100 µM (inactive),> 100 µM (inactive),54.2 µM (inactive),> 100 µM (inactive),81.7 µM (inactive),> 100 µM (inactive),> 100 µM (inactive),> 100 µM (inactive),> 100 µM (inactive),> 100 µM (inactive),93.3 µM,–,30.9 µM (inactive)
O=C(c1ccco1)N(Cc1cccnc1)C(=S)N(Cc1cccnc1)C(=O)c1ccco1,3.86 µM (inactive),14.6 µM (inactive),4.02 µM (inactive),24.5 µM (inactive),19.4 µM (inactive),6.19 µM (inactive),15 µM (inactive),12.5 µM (inactive),5 µM (inactive),34.2 µM (inactive),20.5 µM (inactive),15.2 µM (inactive),11.6 µM (inactive),33.6 µM (inactive),16.3 µM (inactive),19.5 µM (inactive),13.5 µM (inactive),13 µM,–,15.8 µM (inactive)
O=C(CCO)OCCCCCC/C=C\CCCCCC/C=C\CCCCCCCCOC(=O)CCO,15.7 µM (inactive),> 100 µM (inactive),> 100 µM (inactive),17.1 µM (inactive),18.5 µM (inactive),17.1 µM (inactive),18.6 µM (inactive),17.3 µM (inactive),26.6 µM (inactive),17.9 µM (inactive),15.9 µM (inactive),16.3 µM (inactive),21.2 µM (inactive),19.9 µM (inactive),16.7 µM (inactive),16.4 µM (inactive),16.5 µM (inactive),15.6 µM,–,12.2 µM (inactive)
CCN1C(NN)=NS(=O)(=O)c2ccccc21,> 100 µM (inactive),> 100 µM (inactive),> 100 µM (inactive),> 100 µM (inactive),> 100 µM (inactive),> 100 µM (inactive),> 100 µM (inactive),> 100 µM (inactive),> 100 µM (inactive),> 100 µM (inactive),> 100 µM (inactive),> 100 µM (inactive),> 100 µM (inactive),> 100 µM (inactive),> 100 µM (inactive),> 100 µM (inactive),> 100 µM (inactive),> 100 µM,–,> 100 µM (inactive)
CCOC(=O)Oc1cc2c(ccn2C)c2c1c1ccccc1n2C(=O)OCC,> 100 µM (inactive),> 100 µM (inactive),> 100 µM (inactive),> 100 µM (inactive),> 100 µM (inactive),> 100 µM (inactive),> 100 µM (inactive),> 100 µM (inactive),> 100 µM (inactive),> 100 µM (inactive),> 100 µM (inactive),> 100 µM (inactive),> 100 µM (inactive),> 100 µM (inactive),> 100 µM (inactive),> 100 µM (inactive),> 100 µM (inactive),> 100 µM,> 100 µM (inactive),–
COc1cccc2c1OCC1Cc3ccccc3OC21 (stereo unspecified),38.1 µM (inactive),14.8 µM (inactive),32.2 µM (inactive),35.2 µM (inactive),44.9 µM (inactive),34.9 µM (inactive),35.2 µM (inactive),35.4 µM (inactive),41.8 µM (inactive),33.4 µM (inactive),35.1 µM (inactive),45.4 µM (inactive),24.7 µM (inactive),92.3 µM (inactive),43.9 µM (inactive),49.8 µM (inactive),> 100 µM (inactive),43 µM,47.6 µM (inactive),–
CCCCOCCOCCOC1=CC(=O)c2c(O)ccc(O)c2C1=O,1.75 µM (inactive),1.05 µM (active),1.4 µM (inactive),2.65 µM (inactive),–,3 µM (inactive),1.58 µM (inactive),1.9 µM (inactive),1.57 µM (inactive),2.14 µM (inactive),1.8 µM (inactive),1.82 µM (inactive),0.188 µM (active),> 10 µM (inactive),1.85 µM (inactive),1.7 µM (inactive),1.63 µM (inactive),–,2.4 µM (inactive),2.27 µM (inactive)
CC(C)OP(=O)(OC(C)C)/C(C#N)=C/c1c[nH]c2ccccc12,28.7 µM (inactive),51.3 µM (inactive),88.9 µM (inactive),49.8 µM (inactive),54.6 µM (inactive),67.6 µM (inactive),–,> 100 µM (inactive),> 100 µM (inactive),21.7 µM (inactive),> 100 µM (inactive),76.6 µM (inactive),65.5 µM (inactive),92 µM (inactive),> 100 µM (inactive),> 100 µM (inactive),> 100 µM (inactive),> 100 µM,> 100 µM (inactive),19.1 µM (inactive)
CCC(C)C(=O)OC1C(=O)OC2CC3C(C)=CC(=O)C(O)C3(C)C3C4(O)OCC23C1C(C)C4O (stereo unspecified),< 0.01 µM (active),< 0.0108 µM (active),0.205 µM (active),< 0.0166 µM (active),< 0.01 µM (active),< 0.0199 µM (active),0.0324 µM (active),< 0.0292 µM (active),0.0136 µM (active),0.347 µM (active),0.155 µM (active),< 0.0184 µM (active),< 0.0124 µM (active),0.392 µM (active),< 0.0107 µM (active),< 0.019 µM (active),< 0.0105 µM (active),< 0.0185 µM,< 0.0111 µM (active),–
CCOC(=O)/C(=C\c1c[nH]c2ccccc12)P(=O)(OCC)OCC,50.8 µM (inactive),55.8 µM (inactive),20.7 µM (inactive),43.8 µM (inactive),22.3 µM (inactive),17.4 µM (inactive),–,–,45.7 µM (inactive),25.3 µM (inactive),40.5 µM (inactive),32.9 µM (inactive),40.9 µM (inactive),30.5 µM (inactive),33.8 µM (inactive),46.1 µM (inactive),26.8 µM (inactive),27.7 µM,33.5 µM (inactive),37.5 µM (inactive)
CCOC(=O)C(CC(C)C)NC(=O)C(Cc1ccccc1)NC(=O)CNC(=O)OC(C)(C)C (stereo not drawn) (Boc-Gly-Phe-Leu-OEt; configuration not given here),2.44 µM (inactive),20.8 µM (inactive),–,26.5 µM (inactive),21.7 µM (inactive),20 µM (inactive),45.8 µM (inactive),28.9 µM (inactive),20.6 µM (inactive),80.2 µM (inactive),18.7 µM (inactive),18.4 µM (inactive),18.2 µM (inactive),20.8 µM (inactive),17.7 µM (inactive),21.3 µM (inactive),19.1 µM (inactive),18.4 µM,20.9 µM (inactive),2.42 µM (inactive)
CCOC(=O)Cc1ccc(Nc2nc3cc(C(F)(F)F)ccc3nc2C(=O)OCC)cc1,94.4 µM (inactive),> 100 µM (inactive),> 100 µM (inactive),> 100 µM (inactive),67.5 µM (inactive),> 100 µM (inactive),> 100 µM (inactive),61.1 µM (inactive),> 100 µM (inactive),> 100 µM (inactive),> 100 µM (inactive),48.8 µM (inactive),> 100 µM (inactive),51.4 µM (inactive),45.2 µM (inactive),> 100 µM (inactive),50.8 µM (inactive),> 100 µM,–,> 100 µM (inactive)
COc1ccc(OC)c(NC2=NCCO2)c1,> 100 µM (inactive),> 100 µM (inactive),> 100 µM (inactive),> 100 µM (inactive),> 100 µM (inactive),> 100 µM (inactive),> 100 µM (inactive),18 µM (inactive),13.6 µM (inactive),> 100 µM (inactive),> 100 µM (inactive),> 100 µM (inactive),89.7 µM (inactive),–,> 100 µM (inactive),> 100 µM (inactive),> 100 µM (inactive),> 100 µM,> 100 µM (inactive),83.8 µM (inactive)
